The target in experiment [1] is T1, BipA (TypA or YihK) (Escherichia coli, UniProt P0DTT0). Put plainly: isothermal titration calorimetry; crystal structure […] A. It counts as binding. Background: In ITC the heat of successive injections is recorded.
Experiment [2] addresses T1, BipA (TypA or YihK). Described as above. It is filed as binding. The settings on record: read-out: Ka (converted).

This note sets out measurements from paper PMC4543647, “Structural and Functional Analysis of BipA, a Regulator of Virulence in Enteropathogenic Escherichia coli” (The Journal of Biological Chemistry, 2015).

Where two headings read alike, the source gives them in different places.

T1 sequence (P0DTT0 whole entry): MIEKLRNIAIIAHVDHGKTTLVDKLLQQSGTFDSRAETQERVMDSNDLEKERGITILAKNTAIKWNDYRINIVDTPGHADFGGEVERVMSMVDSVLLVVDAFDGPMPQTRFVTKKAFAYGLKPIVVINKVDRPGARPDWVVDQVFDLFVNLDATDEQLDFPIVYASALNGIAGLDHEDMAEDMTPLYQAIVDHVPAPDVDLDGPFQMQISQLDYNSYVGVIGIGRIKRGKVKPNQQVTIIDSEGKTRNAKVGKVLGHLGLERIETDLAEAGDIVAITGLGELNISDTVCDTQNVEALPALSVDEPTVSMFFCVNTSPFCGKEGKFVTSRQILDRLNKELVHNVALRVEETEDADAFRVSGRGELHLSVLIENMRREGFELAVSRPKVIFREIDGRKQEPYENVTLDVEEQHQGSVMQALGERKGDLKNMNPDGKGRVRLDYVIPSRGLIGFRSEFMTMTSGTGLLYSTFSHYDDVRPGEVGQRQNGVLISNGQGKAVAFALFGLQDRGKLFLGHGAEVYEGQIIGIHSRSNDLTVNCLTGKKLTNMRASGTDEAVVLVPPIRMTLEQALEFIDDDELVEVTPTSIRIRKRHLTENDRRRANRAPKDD

Compound `Nc1nc2c(ncn2[C@@H]2O[C@H](COP(=O)(O)OP(=O)(O)O)[C@@H](OP(=O)(O)OP(=O)(O)O)[C@H]2O)c(=O)[nH]1` [ppGpp, guanosine-3′, 5′-bis pyrophosphate] had a Kd on BipA (TypA or YihK) [1] of 41.7 µM. Take `Nc1nc2c(ncn2[C@@H]2O[C@H](COP(=O)(O)OP(=O)(O)O)[C@@H](O)[C@H]2O)c(=O)[nH]1` [GDP]: on BipA (TypA or YihK) [2], the Kd was 14.5 µM.
